The values that follow come from US12295973B2 (Fred Hutchinson Cancer Center, priority 2017, dated 2025).

The structures appear in SMILES notation.

The assay relates to mice exposed to L-TBI. Briefly: Mouse survival after lethal total body irradiation (L-TBI, 840cGy). The format is in vivo. As to conditions: MDV3100 24 h after L-TBI, alone. An excerpt: Description. Inhibition of sex steroids, which can be achieved in a reversible fashion pharmacologically, is a well-described strategy to promote lymphopoiesis in the BM and thymus^8,7,14,15. Although the most common method of sex steroid ablation clinically has been to use LHRH-agonists, it was described that an LHRH-Antagonist represents a more rational approach to promote immediate ablation of sex steroids for immune regeneration as it is far more rapid and abrogates the initial surge in sex steroids that LHRH-Agonist cause^16. Taken together with the impact of sex steroid inhibition on HSC function and the rapid regenerative effects of LHRH-Ant, it was hypothesized that LHRH-Ant could represent a rational non-cellular medical countermeasure for mitigating radiation injury and promoting hematopoietic regeneration when administered after hematopoietic insult. […] It was then tested if LHRH-Ant could mediate even greater mouse survival when administered multiple times.
Methods. […] B6.SJL-Ptprca Pepcb/BoyJ (CD45.1) male mice (The Jackson Laboratory) were used between 7 and 12 weeks of age for transplant. Mice were irradiated with a Gammacell 40 Irradiator (Cs-137), with an average dose rate of 95 cGy/min, in a plexiglass mouse pie cage. To assess mouse survival after radiation, mice were monitored for up to 60 days after TBI. To adjust for differences in weight, identical mice were purchased from Jackson and cages randomly distributed over different groups. All animal protocols were approved by the Memorial Sloan Kettering Cancer Center Institutional Animal Care and Use Committee.
Reagents: Degarelix (as acetate), a LHRH-Ant (Firmagon), was resuspended in sterile water for injection and administered S.C. to mice at a dose of 40 mg/kg. To evaluate the radiomitigative effect of LHRH-Ant on survival, mice were treated subcutaneously (S.C.) with a single injection of the LHRH-Ant or a saline control solution (PBS). Degarelix was purchased from the Memorial Sloan-Kettering Cancer Center Pharmacy. […] MDV3100 (selleckchem) was resuspended in a mixture of 45% PBS, 45% PEG and 10% DMSO and administered daily to mice by oral gavage at a dose of 10 mg/kg. 5-FU (InvivoGen) was administered to mice intraperitoneally (I.P.) at a dose of 150 mg/kg once every 7 days consecutively for 3 times as previously described^34,47,49.

On to `CNC(=O)c1ccc(N2C(=S)N(c3ccc(C#N)c(C(F)(F)F)c3)C(=O)C2(C)C)cc1F` [MDV3100, enzalutamide], for which the “survival after L-TBI” value is on record as “did not mediate any survival benefit”.
